Measured values as given in patent publication US6541002B1, “Compositions and methods for providing a protein to a virion” (Thomas Jefferson University, priority 1998, dated 2003).
No end group written: not given here.

Biological target: HIV-1 Vpr (Human immunodeficiency virus type 1 group M subtype B, UniProt P12520)
Settings: heptapeptide fused to Gal4AD, co-expressed with Vpr-Gal4 DNA-binding domain chimera
Text: DNA fragments encoding the variable heptapeptide region of the coat protein of individual phage isoforms selected from the library described herein were amplified using PCR from purified phage DNA. Amplified peptide-encoding DNA was cloned in frame between the EcoRI and BglII restriction endonuclease sites of pGADGH for use in yeast two-hybrid system experiments.
The yeast reporter strain, HF7c, which comprises two Gal4-inducible reporter genes, namely HIS3 and LacZ, has been described (BouHamdan et al., 1996, J. Virol. 70:697-704). HF7c cells were transformed with two plasmids, pGB-UDG and pGA-Vpr, using known methods to yield double transformant HF7c cells. […] Cells obtained from these plates were used in a liquid culture assay with yeast reporter strain SFY526 to detect beta-galactosidase activity, as described (BouHamdan et al., 1996, J. Virol. 70:697-704; Bartel et al., 1993, Biotech. 14:920-924). […] was used as the substrate in the assay, and each assay was performed in triplicate.
Intracellular interaction of ten of the heptapeptide regions listed in Table 2 with HIV-1 Vpr was further tested using the yeast two-hybrid system.

GHTWWTF [Pep#7]
ability of double transformant HF7c cells to grow on histidine-deficient medium: better able to grow on histidine-deficient medium than the other double transformants tested

KPMWWHF [Pep#9]
ability of double transformant HF7c cells to grow on histidine-deficient medium: better able to grow on histidine-deficient medium than the other double transformants tested

KPKWAIV [Pep#2]
ability of double transformant HF7c cells to grow on histidine-deficient medium: unable to grow on histidine-deficient medium

LPPWAAF [Pep#6]
ability of double transformant HF7c cells to grow on histidine-deficient medium: better able to grow on histidine-deficient medium than the other double transformants tested

SWWSFTP [Pep#1]
ability of double transformant HF7c cells to grow on histidine-deficient medium: able to grow on histidine-deficient medium

WHSFPDS [Pep#10]
ability of double transformant HF7c cells to grow on histidine-deficient medium: able to grow on histidine-deficient medium

SAPWWTF [Pep#5]
ability of double transformant HF7c cells to grow on histidine-deficient medium: better able to grow on histidine-deficient medium than those which expressed chimeric proteins having an amino acid sequence identified in Table 2 as Pep#1 (SEQ ID NO: 16), Pep#8 (SEQ ID NO: 17), or Pep#10 (SEQ ID NO: 18)

TTWWWQF [Pep#4]
ability of double transformant HF7c cells to grow on histidine-deficient medium: better able to grow on histidine-deficient medium than those which expressed chimeric proteins having an amino acid sequence identified in Table 2 as Pep#1 (SEQ ID NO: 16), Pep#8 (SEQ ID NO: 17), or Pep#10 (SEQ ID NO: 18)

WHDFPLV [Pep#3]
ability of double transformant HF7c cells to grow on histidine-deficient medium: better able to grow on histidine-deficient medium than the other double transformants tested

WHSFPPP [Pep#8]
ability of double transformant HF7c cells to grow on histidine-deficient medium: able to grow on histidine-deficient medium
